# Where a name gives a salt, the structure may show the parent alone.
# Tested on: P. falciparum-infected RBCs
# Experiment: Glycolysis IC50 / lactate excretion assay in P. falciparum-infected RBCs
# Type: cell-based
# Conditions: Plasmodium falciparum
# Protocol: The cultures were harvested and DNA quantitated using the standard Sybr Green I fluorescence assay. […] The culture medium was harvested and extracellular lactic acid was quantified by LC-MS.
# P. falciparum (HB-3 strain) cultures were maintained in standard culture conditions. […] Parasites were grown in O+ donor blood, 2% hematocrit.
# Parasite cultures were seeded in 96-well plates (1% hematocrit, 1-2% starting parasitemia, 100 μL total volume) with varying concentrations of the test compounds in a final concentration of 0.1% DMSO. Plates were cultured for 48 hours before harvesting the culture medium for LC-MS analysis. At harvest, thin smears were taken and examined microscopically to observe any alterations in parasite morphology.
# Culture medium samples were diluted in 9 volumes of methanol containing U-^13C-glucose and 1-^13C-lactate (final concentration 0.25 mM each). The samples were clarified by centrifugation at 13,000 RCF for 10 minutes. […] Mobile phase A was acetonitrile, and mobile phase B was 20 mM ammonium acetate (pH 9.4).
# The sample was analyzed on an Exactive mass spectrometer (Thermo Scientific) to determine the chromatographic peak areas the analytes and internal standards. Glucose and lactate were quantified by taking the ratio of the unlabeled peak area to the area of the isotope-labeled standard.
row,Structure (SMILES),IC50 [µM]
1,"CC(C)NC(=O)COc1cccc(-c2nc3c(c(Nc4ccc(-c5cn[nH]c5)cc4)n2)CN(C(=O)C(C)C)CC3)c1 [Example 1, 2-(3-(4-((4-(1H-pyrazol-4-yl)phenyl)amino)-6-isobutyryl-5,6,7,8-tetrahydropyrido[4,3-d]pyrimidin-2-yl)phenoxy)-N-isopropylacetamide]",0.01 to 0.1
2,"CC(C)CNC(=O)COc1cccc(-c2nc(Nc3ccc(-c4cn[nH]c4)cc3)c3ncccc3n2)c1 [Example 14, 2-(3-(4-((4-(1H-pyrazol-4-yl)phenyl)amino)pyrido[3,2-d]pyrimidin-2-yl)phenoxy)-N-isobutylacetamide]",0.251 to 0.5
3,"CC(C)NC(=O)COc1cccc(-c2nc(Nc3ccc(-c4cn[nH]c4)cc3)c3cnn(C)c3n2)c1 [Example 16, 2-(3-(4-((4-(1H-pyrazol-4-yl)phenyl)amino)-1-methyl-1H-pyrazolo[3,4-d]pyrimidin-6-yl)phenoxy)-N-isopropylacetamide]",0.01 to 0.1
4,"CC(C)CNC(=O)COc1cccc(-c2nc(Nc3ccc(-c4cn[nH]c4)cc3)c3cnn(C)c3n2)c1 [Example 18, 2-(3-(4-((4-(1H-pyrazol-4-yl)phenyl)amino)-1-methyl-1H-pyrazolo[3,4-d]pyrimidin-6-yl)phenoxy)-N-isobutylacetamide]",0.01 to 0.1
5,"CC(C)NC(=O)COc1cccc(-c2nc(Nc3ccc(-c4cn[nH]c4)cc3)c3ccncc3n2)c1 [Example 19, 2-(3-(4-((4-(1H-pyrazol-4-yl)phenyl)amino)pyrido[3,4-d]pyrimidin-2-yl)phenoxy)-N-isopropylacetamide]",0.101 to 0.25
6,"CC(C)(C)NC(=O)COc1cccc(-c2nc3c(c(Nc4ccc(-c5cn[nH]c5)cc4)n2)COC3)c1 [Example 26, 2-(3-(4-((4-(1H-pyrazol-4-yl)phenyl)amino)-5,7-dihydrofuro[3,4-d]pyrimidin-2-yl)phenoxy)-N-(tert-butyl)acetamide dihydrochloride]",0.101 to 0.25
7,"CCC(CC)NC(=O)COc1cccc(-c2nc3c(c(Nc4ccc(-c5cn[nH]c5)cc4)n2)COC3)c1 [Example 27, 2-(3-(4-((4-(1H-pyrazol-4-yl)phenyl)amino)-5,7-dihydrofuro[3,4-d]pyrimidin-2-yl)phenoxy)-N-(pentan-3-yl)acetamide dihydrochloride]",0.01 to 0.1
8,"CCC(C)NC(=O)COc1cccc(-c2nc3c(c(Nc4ccc(-c5cn[nH]c5)cc4)n2)COC3)c1 (stereo not drawn) [Example 28, 2-(3-(4-((4-(1H-pyrazol-4-yl)phenyl)amino)-5,7-dihydrofuro[3,4-d]pyrimidin-2-yl)phenoxy)-N-(sec-butyl)acetamide]",0.01 to 0.1
9,"CC(C)CNC(=O)COc1cccc(-c2nc3c(c(Nc4ccc(-c5cn[nH]c5)cc4)n2)COC3)c1 [Example 29, 2-(3-(4-((4-(1H-pyrazol-4-yl)phenyl)amino)-5,7-dihydrofuro[3,4-d]pyrimidin-2-yl)phenoxy)-N-isobutylacetamide]",0.101 to 0.25
10,"CC(C)(C)CNC(=O)COc1cccc(-c2nc3c(c(Nc4ccc(-c5cn[nH]c5)cc4)n2)COC3)c1 [Example 30, 2-(3-(4-((4-(1H-pyrazol-4-yl)phenyl)amino)-5,7-dihydrofuro[3,4-d]pyrimidin-2-yl)phenoxy)-N-neopentylacetamide]",0.101 to 0.25
11,"CCC(C)NC(=O)COc1cccc(-c2nc3c(c(Nc4ccc(-c5cn[nH]c5)cc4)n2)COCC3)c1 (stereo not drawn) [Example 41, 2-(3-(4-((4-(1H-pyrazol-4-yl)phenyl)amino)-7,8-dihydro-5H-pyrano[4,3-d]pyrimidin-2-yl)phenoxy)-N-(sec-butyl)acetamide]",0.01 to 0.1
12,"CC(C)(C)NC(=O)COc1cccc(-c2nc(Nc3ccc(-c4cn[nH]c4)cc3)c3sccc3n2)c1 [Example 42, 2-(3-(4-((4-(1H-pyrazol-4-yl)phenyl)amino)thieno[3,2-d]pyrimidin-2-yl)phenoxy)-N-(tert-butyl)acetamide]",0.101 to 0.25
13,"CCC(C)(C)NC(=O)COc1cccc(-c2nc(Nc3ccc(-c4cn[nH]c4)cc3)c3sccc3n2)c1 [Example 43, 2-(3-(4-((4-(1H-pyrazol-4-yl)phenyl)amino)thieno[3,2-d]pyrimidin-2-yl)phenoxy)-N-(tert-pentyl)acetamide]",0.01 to 0.1
14,"CC(=O)N1CCc2nc(-c3cccc(OCC(=O)NC(C)C)c3)nc(Nc3ccc(-c4cn[nH]c4)cc3)c2C1 [Example 44, 2-(3-(4-((4-(1H-pyrazol-4-yl)phenyl)amino)-6-acetyl-5,6,7,8-tetrahydropyrido[4,3-d]pyrimidin-2-yl)phenoxy)-N-isopropylacetamide]",0.01 to 0.1

# Now from value to compound:
row,IC50 [µM],Structure (SMILES)
1,0.101 to 0.25,"CC(C)NC(=O)COc1cccc(-c2nc3c(c(Nc4ccc(-c5cn[nH]c5)cc4)n2)COC3)c1 [Example 2, 2-(3-(4-((4-(1H-pyrazol-4-yl)phenyl)amino)-5,7-dihydrofuro[3,4-d]pyrimidin-2-yl)phenoxy)-N-isopropylacetamide]"
2,0.251 to 0.5,O=C(COc1cccc(-c2nc(Nc3ccc(-c4cn[nH]c4)cc3)c3sccc3n2)c1)NC1CC1 [Example 5]
3,0.251 to 0.5,O=C(COc1cccc(-c2nc(Nc3ccc(-c4cn[nH]c4)cc3)c3occc3n2)c1)NC1CCCC1 [Example 9]
4,0.101 to 0.25,Cn1cnc2c(Nc3ccc(-c4cn[nH]c4)cc3)nc(-c3cccc(OCC(=O)NC4CCC4)c3)nc21 [Example 11]
5,0.101 to 0.25,O=C(COc1cccc(-c2nc3c(c(Nc4ccc(-c5cn[nH]c5)cc4)n2)COC3)c1)NC1CCC1 [Example 12]
6,0.101 to 0.25,O=C(COc1cccc(-c2nc3c(c(Nc4ccc(-c5cn[nH]c5)cc4)n2)COC3)c1)NC1CCCC1 [Example 13]
7,0.101 to 0.25,"Cn1ncc2c(Nc3ccc(-c4cn[nH]c4)cc3)nc(-c3cccc(OCC(=O)NC4CCC4)c3)nc21 [Example 15, 2-(3-(4-((4-(1H-pyrazol-4-yl)phenyl)amino)-1-methyl-1H-pyrazolo[3,4-d]pyrimidin-6-yl)phenoxy)-N-cyclobutylacetamide]"
8,0.101 to 0.25,"Cn1ncc2c(Nc3ccc(-c4cn[nH]c4)cc3)nc(-c3cccc(OCC(=O)NC4CCCC4)c3)nc21 [Example 17, 2-(3-(4-((4-(1H-pyrazol-4-yl)phenyl)amino)-1-methyl-1H-pyrazolo[3,4-d]pyrimidin-6-yl)phenoxy)-N-cyclopentylacetamide]"
9,0.101 to 0.25,"O=C(COc1cccc(-c2nc(Nc3ccc(-c4cn[nH]c4)cc3)c3ccncc3n2)c1)NC1CCC1 [Example 20, 2-(3-(4-((4-(1H-pyrazol-4-yl)phenyl)amino)pyrido[3,4-d]pyrimidin-2-yl)phenoxy)-N-cyclobutylacetamide]"
10,0.101 to 0.25,"O=C(COc1cccc(-c2nc(Nc3ccc(-c4cn[nH]c4)cc3)c3ccncc3n2)c1)NC1CCCC1 [Example 21, 2-(3-(4-((4-(1H-pyrazol-4-yl)phenyl)amino)pyrido[3,4-d]pyrimidin-2-yl)phenoxy)-N-cyclopentylacetamide]"
11,0.251 to 0.5,"CC(C)NC(=O)COc1cccc(-c2nc(Nc3ccc(-c4cn[nH]c4)cc3)c3ncsc3n2)c1 [Example 22, 2-(3-(7-((4-(1H-pyrazol-4-yl)phenyl)amino)thiazolo[5,4-d]pyrimidin-5-yl)phenoxy)-N-isopropylacetamide]"
12,0.251 to 0.5,"O=C(COc1cccc(-c2nc(Nc3ccc(-c4cn[nH]c4)cc3)c3ncsc3n2)c1)NC1CCC1 [Example 23, 2-(3-(7-((4-(1H-pyrazol-4-yl)phenyl)amino)thiazolo[5,4-d]pyrimidin-5-yl)phenoxy)-N-cyclobutylacetamide]"
13,0.251 to 0.5,"O=C(COc1cccc(-c2nc(Nc3ccc(-c4cn[nH]c4)cc3)c3ncsc3n2)c1)NC1CCCC1 [Example 24, 2-(3-(7-((4-(1H-pyrazol-4-yl)phenyl)amino)thiazolo[5,4-d]pyrimidin-5-yl)phenoxy)-N-cyclopentylacetamide]"
14,0.251 to 0.5,"CC(C)CNC(=O)COc1cccc(-c2nc(Nc3ccc(-c4cn[nH]c4)cc3)c3ncsc3n2)c1 [Example 25, 2-(3-(7-((4-(1H-pyrazol-4-yl)phenyl)amino)thiazolo[5,4-d]pyrimidin-5-yl)phenoxy)-N-isobutylacetamide]"
15,0.251 to 0.5,"O=C(COc1cccc(-c2nc3c(c(Nc4ccc(-c5cn[nH]c5)cc4)n2)COC3)c1)NC1CC(F)(F)C1 [Example 32, 2-(3-(4-((4-(1H-pyrazol-4-yl)phenyl)amino)-5,7-dihydrofuro[3,4-d]pyrimidin-2-yl)phenoxy)-N-(3,3-difluorocyclobutyl)acetamide]"
16,0.501 to 1,"CC(C)NC(=O)COc1cccc(-c2nc3c(c(Nc4ccc(-c5cn[nH]c5)cc4)n2)CSC3)c1 [Example 34, 2-(3-(4-((4-(1H-pyrazol-4-yl)phenyl)amino)-5,7-dihydrothieno[3,4-d]pyrimidin-2-yl)phenoxy)-N-isopropylacetamide]"
17,0.501 to 1,"O=C(COc1cccc(-c2nc3c(c(Nc4ccc(-c5cn[nH]c5)cc4)n2)CSC3)c1)NC1CCC1 [Example 35, 2-(3-(4-((4-(1H-pyrazol-4-yl)phenyl)amino)-5,7-dihydrothieno[3,4-d]pyrimidin-2-yl)phenoxy)-N-cyclobutylacetamide]"
18,0.501 to 1,"O=C(COc1cccc(-c2nc3c(c(Nc4ccc(-c5cn[nH]c5)cc4)n2)CSC3)c1)NC1CCCC1 [Example 36, 2-(3-(4-((4-(1H-pyrazol-4-yl)phenyl)amino)-5,7-dihydrothieno[3,4-d]pyrimidin-2-yl)phenoxy)-N-cyclopentylacetamide]"
19,0.01 to 0.1,"CC(C)NC(=O)COc1cccc(-c2nc3c(c(Nc4ccc(-c5cn[nH]c5)cc4)n2)COCC3)c1 [Example 40, 2-(3-(4-((4-(1H-pyrazol-4-yl)phenyl)amino)-7,8-dihydro-5H-pyrano[4,3-d]pyrimidin-2-yl)phenoxy)-N-isopropylacetamide]"

# From patent publication US10729691B2, “Treatment of infectious diseases with glucose uptake inhibitors” (Kadmon Corporation LLC, priority 2015, dated 2020)
